Data on two molecules can be found in patent publication US20240366639A1, “HETEROCYCLIC GLP-1 AGONISTS” (GASHERBRUM BIO, INC., priority 2021, published 2024).

Where two headings read alike, the source gives them in different places.

This test deals with T1, GLP-1 Receptor (GLP1R) (Homo sapiens, UniProt P43220).
T1 construct: host or cells: HEK293/GLP1R/CRE-LUC
Put plainly: GLP-1R agonist cAMP stimulation assay (Method 3). To be noted: HEK293/GLP1R/CRE-LUC cells (HDB), Method 3, 30 min incubation. The class given is cell-based. The gist of the method: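 HEK293 CRE-Luc cells stably expressing GLP-1R (1000 cells/well) were exposed to ½-log serially diluted compound in DPBS with 0.5 mM IBMX and 0.1% BSA for 30 min at 37 °C. cAMP was quantified by HTRF (cAMP-d2/anti-cAMP cryptate), 1 h at room temperature, read at 665/615 nm.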

Where [1] appears, read: read-out: GLP1R cAMP Stimulation DR: EC50 (nM) [Species: Human, Assay Cell Line: HDB].
[2] abbreviates: read-out: GLP1R cAMP Stimulation DR: pEC50 (M) [Species: Human, Assay Cell Line: HDB] (converted).

T1 sequence (P43220 24-463): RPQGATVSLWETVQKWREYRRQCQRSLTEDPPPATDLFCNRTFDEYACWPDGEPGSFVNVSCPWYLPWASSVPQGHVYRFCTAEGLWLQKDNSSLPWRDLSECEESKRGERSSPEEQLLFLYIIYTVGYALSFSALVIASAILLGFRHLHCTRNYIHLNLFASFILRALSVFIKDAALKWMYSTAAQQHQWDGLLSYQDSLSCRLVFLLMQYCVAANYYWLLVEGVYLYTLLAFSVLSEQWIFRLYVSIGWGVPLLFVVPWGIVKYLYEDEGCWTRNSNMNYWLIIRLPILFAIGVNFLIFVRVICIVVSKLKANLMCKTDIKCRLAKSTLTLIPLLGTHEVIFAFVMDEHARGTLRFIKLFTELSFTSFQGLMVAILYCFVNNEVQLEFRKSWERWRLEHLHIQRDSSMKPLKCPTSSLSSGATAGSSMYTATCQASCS

As to `Cc1cc(-n2nc3c(c2-n2ccn(-c4ccc(P(C)(C)=O)c(OC(F)(F)F)c4)c2=O)[C@H](C)N(C(=O)c2cc4cc(C5CCOCC5)ccc4n2[C@@]2(c4noc(=O)[nH]4)C[C@@H]2C)CC3)cc(C)c1F` [Compound 123a, 3-((1S,2S)-1-(2-((S)-3-(3-(4-(dimethylphosphoryl)-3-(trifluoromethoxy)phenyl)-2-oxo-2,3-dihydro-1H-imidazol-1-yl)-2-(4-fluoro-3,5-dimethylphenyl)-4-methyl-4,5,6,7-tetrahydro-2H-pyrazolo[4,3-c]pyridine-5-carbonyl)-5-(tetrahydro-2H-pyran-4-yl)-1H-indol-1-yl)-2-methylcyclopropyl)-1,2,4-oxadiazol-5(4H)-one], the EC50 under setting [1] is 0.2 to 0.5 nM and the EC50 under setting [2] was 0.1 to 1 nM.

As to `CCP(=O)(CC)c1ccc(-n2ccn(-c3c4c(nn3-c3cc(C)c(F)c(C)c3)CCN(C(=O)c3cc5cc(C6CCC(F)(F)CC6)ccc5n3[C@@]3(c5noc(=O)[nH]5)C[C@@H]3C)[C@H]4C)c2=O)cc1NC` [Compound 133a, 3-((1S,2S)-1-(2-((S)-3-(3-(4-(diethylphosphoryl)-3-(methylamino)phenyl)-2-oxo-2,3-dihydro-1H-imidazol-1-yl)-2-(4-fluoro-3,5-dimethylphenyl)-4-methyl-4,5,6,7-tetrahydro-2H-pyrazolo[4,3-c]pyridine-5-carbonyl)-5-(4,4-difluorocyclohexyl)-1H-indol-1-yl)-2-methylcyclopropyl)-1,2,4-oxadiazol-5(4H)-one], the EC50 was 0.1 to 0.2 nM under setting [1] and 0.1 to 1 nM under setting [2].
